# According to ChEMBL document CHEMBL4196104, “Hawaiienols A-D, Highly Oxygenated p-Terphenyls from an Insect-Associated Fungus, Paraconiothyrium hawaiiense” (J Nat Prod, 2018):
# Calls of active or inactive are those of the source. The calls are words filed in the database; no cut-off is given here.
# Experiments:
# Type in all cases: functional, cell-based
# HeLa [1] = test: Antiproliferative activity against human HeLa cells after 24 hrs by CCK-8 assay
# HCT-116 [2] = test: Antiproliferative activity against human HCT116 cells after 24 hrs by CCK-8 assay; conditions: HCT-116, 24 h
# T-24 [3] = test: Antiproliferative activity against human T24 cells after 24 hrs by CCK-8 assay; conditions: T-24, 24 h
# SH-SY5Y [4] = test: Antiproliferative activity against human SH-SY5Y cells after 24 hrs by CCK-8 assay
# A549 [5] = test: Antiproliferative activity against human A549 cells after 24 hrs by CCK-8 assay; conditions: A549, 24 h
# MCF7 [6] = test: Antiproliferative activity against human MCF7 cells after 24 hrs by CCK-8 assay; conditions: MCF7, 24 h
# MCF7 [7] = test: Antiproliferative activity against human MCF7 cells at 50 uM after 24 hrs by CCK-8 assay
# SH-SY5Y [8] = test: Antiproliferative activity against human SH-SY5Y cells at 50 uM after 24 hrs by CCK-8 assay
# HCT-116 [9] = test: Antiproliferative activity against human HCT116 cells at 50 uM after 24 hrs by CCK-8 assay
# T-24 [10] = test: Antiproliferative activity against human T24 cells at 50 uM after 24 hrs by CCK-8 assay
# HeLa [11] = test: Antiproliferative activity against human HeLa cells at 50 uM after 24 hrs by CCK-8 assay
# A549 [12] = test: Antiproliferative activity against human A549 cells at 50 uM after 24 hrs by CCK-8 assay
IC50 (HeLa [1]),IC50 (HCT-116 [2]),IC50 (SH-SY5Y [4]),IC50 (A549 [5]),IC50 (MCF7 [6]),SMILES,IC50 (T-24 [3]),Activity (MCF7 [7]),Activity (SH-SY5Y [8]),Activity (HCT-116 [9]),Activity (T-24 [10]),Activity (HeLa [11]),Activity (A549 [12])
19.7 µM,57.1 µM,9.3 µM,23.1 µM,42.9 µM,COc1ccc([C@]23O[C@@H]4C2O[C@](OC)([C@H]3O)[C@]4(O)c2ccc(O)cc2)cc1,46.6 µM,–,–,–,–,–,–
–,–,–,–,–,COc1ccc([C@]23O[C@](c4ccc(OC)cc4)([C@@H](O)[C@@H]2O)[C@@H](O)[C@@H]3O)cc1,–,inactive,inactive,inactive,inactive,inactive,inactive
–,–,–,–,–,COc1ccc([C@]2(O)C(=O)[C@@]3(OC)OC2[C@@H](O)[C@@]3(O)c2ccc(OC)cc2)cc1,–,inactive,inactive,inactive,inactive,inactive,inactive
–,–,–,–,–,COc1ccc([C@]2(O)[C@H](O)C(=O)[C@@](O)(c3ccc(OC)cc3)[C@H](O)[C@H]2O)cc1,–,inactive,inactive,inactive,inactive,inactive,inactive
